{"source": "patent US20260041683A1", "about": "“Compounds with Anti-Acinetobacter Baumannii Activity” (University of Kentucky Research Foundation, priority 2022, published 2026)", "data": [{"system": "all 43 strains of A. baumannii (41 CDC strains and 2 ATCC strains)", "experiment": "MIC value statistics for all A. baumannii strains", "assay_type": "cell-based, Acinetobacter baumannii", "details": "of 43 A. baumannii strains", "method": "All bacterial strains listed above were stored at −80° C. All strains were streaked on Mueller-Hinton (MH) plates and allowed to grow at 37° C. overnight. Enough colonies were scraped from the plate and suspended in MH broth with vortexing to reach an attenuance at 600 nm (OD600) of ˜0.5. The resulting culture was diluted 1:1000 and added to the prepared serially doubly diluted compound solutions in 96-well plates. […]. For each row, one well was reserved for sterile control (which consisted of 200 μL of MH medium) and another well was reserved for growth control (which consisted of 100 μL of MH medium seeded with 100 μL of bacterial culture).\nHaving established that the observed activity is selective to A. baumannii, all synthesized compounds were tested against a panel of antibiotic resistant A. baumannii from the Antimicrobial Resistant (AR) Isolate Bank from the CDC along with strains I and J (Table Si). […]. Based on this statistical analysis, the best compound is 5e followed closely by 3e.", "values": [{"molecule": "O=C(NNc1cccc(F)c1)c1ccc(F)cc1F", "note": "[Compound 1a]", "number of compound/strain combinations with MIC value 0.25 μg/mL": 3, "number of compound/strain combinations with MIC value 0.5 μg/mL": 26, "number of compound/strain combinations with MIC value 1 μg/mL": 9, "number of compound/strain combinations with MIC value 2 μg/mL": 4, "number of compound/strain combinations with MIC value ≤0.125 μg/mL": 1}, {"molecule": "CCOC(=O)CNNC(=O)c1ccc(F)cc1F", "note": "[Compound 1g]", "number of compound/strain combinations with MIC value >64 μg/mL": 43}, {"molecule": "O=C(NNC1CCCCC1)c1ccc(F)cc1F", "note": "[Compound 1h]", "number of compound/strain combinations with MIC value >64 μg/mL": 43}, {"molecule": "CCOC(=O)CNNC(=O)c1ccccn1", "note": "[Compound 2g]", "number of compound/strain combinations with MIC value >64 μg/mL": 43}, {"molecule": "O=C(NNc1cccc(F)c1)c1cccc(F)n1", "note": "[Compound 5a]", "number of compound/strain combinations with MIC value 0.25 μg/mL": 1, "number of compound/strain combinations with MIC value 0.5 μg/mL": 8, "number of compound/strain combinations with MIC value 1 μg/mL": 25, "number of compound/strain combinations with MIC value 2 μg/mL": 9}, {"molecule": "O=C(NNc1cccc(F)c1)c1ncc(F)cc1F", "note": "[Compound 7a]", "number of compound/strain combinations with MIC value 0.25 μg/mL": 5, "number of compound/strain combinations with MIC value 0.5 μg/mL": 19, "number of compound/strain combinations with MIC value 1 μg/mL": 18, "number of compound/strain combinations with MIC value ≤0.125 μg/mL": 1}, {"molecule": "O=C(NNc1cccc(F)c1)c1nc(F)ccc1F", "note": "[Compound 8a]", "number of compound/strain combinations with MIC value 0.25 μg/mL": 11, "number of compound/strain combinations with MIC value 0.5 μg/mL": 12, "number of compound/strain combinations with MIC value 1 μg/mL": 18, "number of compound/strain combinations with MIC value ≤0.125 μg/mL": 2}, {"molecule": "O=C(NNc1ccc(Cl)cc1)c1cnccn1", "note": "[Compound 9e]", "number of compound/strain combinations with MIC value 0.25 μg/mL": 8, "number of compound/strain combinations with MIC value 0.5 μg/mL": 19, "number of compound/strain combinations with MIC value 1 μg/mL": 15, "number of compound/strain combinations with MIC value ≤0.125 μg/mL": 1}, {"molecule": "CCOC(=O)CNNC(=O)c1cnccn1", "note": "[Compound 9g]", "number of compound/strain combinations with MIC value >64 μg/mL": 43}, {"molecule": "O=C(NNC1CCCCC1)c1cnccn1", "note": "[Compound 9h]", "number of compound/strain combinations with MIC value >64 μg/mL": 43}, {"molecule": "O=C(NNc1ccc(Cl)cc1)c1cccnc1", "note": "[Compound 11e]", "number of compound/strain combinations with MIC value 0.25 μg/mL": 15, "number of compound/strain combinations with MIC value 0.5 μg/mL": 19, "number of compound/strain combinations with MIC value 1 μg/mL": 4, "number of compound/strain combinations with MIC value ≤0.125 μg/mL": 5}, {"molecule": "O=C(NNc1cccc(F)c1)c1cnc2ccccc2n1", "note": "[Compound 13a]", "number of compound/strain combinations with MIC value 0.25 μg/mL": 6, "number of compound/strain combinations with MIC value 0.5 μg/mL": 19, "number of compound/strain combinations with MIC value 1 μg/mL": 15, "number of compound/strain combinations with MIC value 2 μg/mL": 3}, {"molecule": "O=C(NNc1cccc(F)c1)c1ccco1", "note": "[Compound 15a]", "number of compound/strain combinations with MIC value 0.25 μg/mL": 21, "number of compound/strain combinations with MIC value 0.5 μg/mL": 16, "number of compound/strain combinations with MIC value ≤0.125 μg/mL": 6}, {"molecule": "CCC(=O)NNc1cccc(F)c1", "note": "[Compound 16a]", "number of compound/strain combinations with MIC value 0.25 μg/mL": 10, "number of compound/strain combinations with MIC value 0.5 μg/mL": 15, "number of compound/strain combinations with MIC value 1 μg/mL": 14, "number of compound/strain combinations with MIC value ≤0.125 μg/mL": 4}]}]}
